Laboratory results from US20130196999A1, “METHODS OF CONTROLLING NEONICOTINOID RESISTANT APHIDS” (SYNGENTA CROP PROTECTION LLC, priority 2010, published 2013).

Assays:
[1] = test system: neonicotinoid insecticide resistant aphid strain; experiment: Leaf disc spray bioassay, aphid mortality, resistant strain; type: in vivo, aphids; conditions: for LC50 with 95% confidence limit, resistant strain: mixed age aphids on chinese cabbage leaf discs, Potter Tower spray, mortality 72 hours after treatment, strain collected from peach orchard, Avignon region, 2009
Protocol: (§1) The following bioassay methodology was utilized to generate the data included in the table:
(§2) 5 cm leaf discs were taken from fully expanded chinese cabbage leaves and placed with the underside facing upwards onto water agar in 5 cm Petri dishes. The leaf discs are infested with between 30 and 40 mixed age aphids 24 hours prior to insecticide treatment. The leaf surface is sprayed with the appropriate test solutions in a Burkhard Potter Tower at an approximate water volume of […]. Test containers are stored at 21° C., 60% RH and 16:8 light/dark. Aphids were assessed for mortality 72 hours after treatment.

[2] = test system: neonicotinoid insecticide susceptible strain 4106A; experiment: Leaf disc spray bioassay, aphid mortality, susceptible strain; type: in vivo; conditions: mixed age aphids on chinese cabbage leaf discs, Potter Tower spray, mortality 72 hours after treatment; strain 4106A from Rothamsted Research
Protocol: as §1, §2

Structure (SMILES)	LC50 with 95% confidence limit, resistant strain [1]	cross-resistance with neonicotinoid insecticides ([1]; neonicotinoid resistant populations of aphids)	LC50 with 95% confidence limit, susceptible strain [2]
CC1=NNC(=O)N(N=Cc2cccnc2)C1 [pymetrozine, 4,5-dihydro-6-methyl-4-(3-pyridylmethyleneamino)-1,2,4-triazin-3(2H)-one]	3.07 (0.97-6.59) ppm	no cross-resistance	0.52 (0.4-0.66) ppm
CN1COCN(Cc2cnc(Cl)s2)/C1=N\[N+](=O)[O-] [thiamethoxam, reference compound]	148 (128-172) ppm	–	0.35 (0.3-0.41) ppm
